Results: publication PMC5218480 (PLoS ONE, 2017)

Test system: MV-4-11 cells
Assay: Gene expression microarray analysis (Affymetrix PrimeView) and GSEA
Assay type: cell-based, human
Design: RFU PODN (11730768_x_at) / Fold change /veh PODN (11730768_x_at) / RFU LINC00158 (11744669_a_at) / Fold change /veh LINC00158 (11744669_a_at) / RFU DUSP10 (11751237_a_at) / Fold change /veh DUSP10 (11751237_a_at) / RFU ID3 (11757404_x_at) / Fold change /veh ID3 (11757404_x_at) / RFU PLEKHG5 (11737974_s_at) / Fold change /veh PLEKHG5 (11737974_s_at) / RFU LRRC4B (11730491_at) / Fold change /veh LRRC4B (11730491_at) / RFU GIMAP4 (11747438_a_at) / Fold change /veh GIMAP4 (11747438_a_at) / RFU KRT8 (11758183_x_at) / Fold change /veh KRT8 (11758183_x_at) / RFU CNN1 (11734310_a_at) / Fold change /veh CNN1 (11734310_a_at) / RFU VPS37D (11726825_at) / Fold change /veh VPS37D (11726825_at) / RFU C10orf10 (11716522_x_at) / Fold change /veh C10orf10 (11716522_x_at) / RFU KIR2DL2 /// KIR2DL4 /// KIR2DL5A /// KIR2DL5B /// KIR2DS1 /// KIR2DS2 /// KIR2DS3 /// KIR2DS4 /// KIR3DL3 /// KIR3DL3 /// KIR3DS1 (11738374_at) / Fold change /veh KIR2DL2 /// KIR2DL4 /// KIR2DL5A /// KIR2DL5B /// KIR2DS1 /// KIR2DS2 /// KIR2DS3 /// KIR2DS4 /// KIR3DL3 /// KIR3DL3 /// KIR3DS1 (11738374_at) / RFU C1QL1 (11718748_at) / Fold change /veh C1QL1 (11718748_at) / RFU TMPRSS4 (11747572_a_at) / Fold change /veh TMPRSS4 (11747572_a_at) / RFU HAMP (11756126_x_at) / Fold change /veh HAMP (11756126_x_at) / RFU RNFT2 (11725882_a_at) / Fold change /veh RNFT2 (11725882_a_at) / RFU NR4A2 (11747474_a_at) / Fold change /veh NR4A2 (11747474_a_at) / RFU ABCC12 (11746883_a_at) / Fold change /veh ABCC12 (11746883_a_at) / RFU TMEM136 (11760407_x_at) / Fold change /veh TMEM136 (11760407_x_at) / RFU CLDN22 /// WWC2 (11732394_at) / Fold change /veh CLDN22 /// WWC2 (11732394_at) / RFU HLA-DPB1 (11760878_x_at) / Fold change /veh HLA-DPB1 (11760878_x_at) / RFU SPINT1 (11716480_a_at) / Fold change /veh SPINT1 (11716480_a_at) / RFU GAP43 (11754022_s_at) / Fold change /veh GAP43 (11754022_s_at) / RFU A4GNT (11735810_at) / Fold change /veh A4GNT (11735810_at) / RFU PRB3 (11715151_x_at) / Fold change /veh PRB3 (11715151_x_at) / RFU TUBB4B (11761932_at) / Fold change /veh TUBB4B (11761932_at) / RFU CAPN14 (11732068_a_at) / Fold change /veh CAPN14 (11732068_a_at) / RFU TMCC2 (11721928_a_at) / Fold change /veh TMCC2 (11721928_a_at) / RFU IRGQ (11745062_a_at) / Fold change /veh IRGQ (11745062_a_at) / RFU FAM174B (11720279_a_at) / Fold change /veh FAM174B (11720279_a_at) / RFU TMPRSS4 (11748680_a_at) / Fold change /veh TMPRSS4 (11748680_a_at) / RFU FAM212B (11763350_a_at) / Fold change /veh FAM212B (11763350_a_at) / RFU PLEKHG5 (11743358_a_at) / Fold change /veh PLEKHG5 (11743358_a_at) / RFU ZSCAN30 (11745921_a_at) / Fold change /veh ZSCAN30 (11745921_a_at) / RFU CMKLR1 (11741424_a_at) / Fold change /veh CMKLR1 (11741424_a_at) / RFU LOC101060620 /// MAPK8IP1 (11723275_at) / Fold change /veh LOC101060620 /// MAPK8IP1 (11723275_at) / RFU SPTSSB (11747773_x_at) / Fold change /veh SPTSSB (11747773_x_at) / RFU PRSS12 (11739890_at) / Fold change /veh PRSS12 (11739890_at) / RFU BIN1 (11741810_x_at) / Fold change /veh BIN1 (11741810_x_at) / RFU WNT11 (11732464_a_at) / Fold change /veh WNT11 (11732464_a_at) / RFU C10orf10 (11716521_a_at) / Fold change /veh C10orf10 (11716521_a_at) / RFU C5orf56 (11738089_at) / Fold change /veh C5orf56 (11738089_at) / RFU CYB561 (11721691_x_at) / Fold change /veh CYB561 (11721691_x_at) / RFU ANKRD19P (11752326_a_at) / Fold change /veh ANKRD19P (11752326_a_at) / RFU OR2T12 /// OR2T33 /// OR2T8 (11738714_s_at) / Fold change /veh OR2T12 /// OR2T33 /// OR2T8 (11738714_s_at) / RFU VCAN (11748164_a_at) / Fold change /veh VCAN (11748164_a_at) / RFU JSRP1 (11732532_at) / Fold change /veh JSRP1 (11732532_at) / RFU KRTAP10-11 (11738290_x_at) / Fold change /veh KRTAP10-11 (11738290_x_at) / RFU MYO3A (11730013_a_at) / Fold change /veh MYO3A (11730013_a_at) / RFU EBF3 (11725865_a_at) / Fold change /veh EBF3 (11725865_a_at) / RFU CAMK2N1 (11719241_x_at) / Fold change /veh CAMK2N1 (11719241_x_at) / RFU C5orf56 (11738088_a_at) / Fold change /veh C5orf56 (11738088_a_at) / RFU OLFML3 (11715873_a_at) / Fold change /veh OLFML3 (11715873_a_at) / RFU LOC100653217 /// NTM (11731650_a_at) / Fold change /veh LOC100653217 /// NTM (11731650_a_at) / RFU MAPK11 (11762145_a_at) / Fold change /veh MAPK11 (11762145_a_at) / RFU FIZ1 (11724087_x_at) / Fold change /veh FIZ1 (11724087_x_at) / RFU OASL (11726364_x_at) / Fold change /veh OASL (11726364_x_at) / RFU SOX15 (11748057_x_at) / Fold change /veh SOX15 (11748057_x_at) / RFU CD79A (11719716_a_at) / Fold change /veh CD79A (11719716_a_at) / RFU HIST1H1D (11736915_at) / Fold change /veh HIST1H1D (11736915_at) / RFU CASKIN2 (11723855_a_at) / Fold change /veh CASKIN2 (11723855_a_at) / RFU LOC730098 (11760151_x_at) / Fold change /veh LOC730098 (11760151_x_at) / RFU OR4N2 (11742367_at) / Fold change /veh OR4N2 (11742367_at) / RFU PRRT2 (11749266_a_at) / Fold change /veh PRRT2 (11749266_a_at) / RFU SNX32 (11753110_a_at) / Fold change /veh SNX32 (11753110_a_at) / RFU CDHR5 (11726645_a_at) / Fold change /veh CDHR5 (11726645_a_at) / RFU RCAN1 (11760418_a_at) / Fold change /veh RCAN1 (11760418_a_at) / RFU FAM167A (11723789_a_at) / Fold change /veh FAM167A (11723789_a_at) / RFU FAM26E (11764081_at) / Fold change /veh FAM26E (11764081_at) / RFU ISYNA1 (11749810_s_at) / Fold change /veh ISYNA1 (11749810_s_at) / RFU ACY1 (11761880_at) / Fold change /veh ACY1 (11761880_at) / RFU 11764098_at / Fold change /veh 11764098_at / RFU SAMD14 (11745864_x_at) / Fold change /veh SAMD14 (11745864_x_at) / RFU NPB (11741838_a_at) / Fold change /veh NPB (11741838_a_at) / RFU TMPRSS6 (11731388_a_at) / Fold change /veh TMPRSS6 (11731388_a_at) / RFU KRTAP10-2 (11738614_at) / Fold change /veh KRTAP10-2 (11738614_at) / RFU ARHGAP8 /// PRR5-ARHGAP8 (11727945_x_at) / Fold change /veh ARHGAP8 /// PRR5-ARHGAP8 (11727945_x_at) / RFU KRTAP5-7 /// NADSYN1 (11734609_at) / Fold change /veh KRTAP5-7 /// NADSYN1 (11734609_at) / RFU RASL12 (11751679_a_at) / Fold change /veh RASL12 (11751679_a_at) / RFU CDKN2B (11736163_a_at) / Fold change /veh CDKN2B (11736163_a_at) / RFU PRF1 (11729649_at) / Fold change /veh PRF1 (11729649_at) / RFU, ZNF638 /// ZNF638-IT1 / Fold change vs veh, ZNF638 /// ZNF638-IT1 / RFU, PANK3 / Fold change vs veh, PANK3 / RFU, SH3YL1 / Fold change vs veh, SH3YL1 / RFU, ZEB2 / Fold change vs veh, ZEB2 / RFU, NRIP1 / Fold change vs veh, NRIP1 / RFU, PTTG1IP / Fold change vs veh, PTTG1IP / RFU, CAPN2 / Fold change vs veh, CAPN2 / RFU, MED14 / Fold change vs veh, MED14 / RFU, SNORA58 / Fold change vs veh, SNORA58 / RFU, C1orf63 / Fold change vs veh, C1orf63 / RFU, LRRFIP1 / Fold change vs veh, LRRFIP1 / RFU, NDUFAF7 / Fold change vs veh, NDUFAF7 / RFU, SLC12A2 / Fold change vs veh, SLC12A2 / RFU, IBTK / Fold change vs veh, IBTK / RFU, ESF1 / Fold change vs veh, ESF1 / Fold change vs veh, TMEM50B / RFU, TAOK1 / Fold change vs veh, TAOK1 / RFU, ACBD3 / Fold change vs veh, ACBD3 / RFU, TMA16 / Fold change vs veh, TMA16 / RFU, RWDD3 / Fold change vs veh, RWDD3 / RFU, BCAT1 / Fold change vs veh, BCAT1 / RFU, EDEM3 / Fold change vs veh, EDEM3 / RFU, TMEM33 / Fold change vs veh, TMEM33 / RFU, WDR75 / Fold change vs veh, WDR75 / RFU, AHCTF1 / Fold change vs veh, AHCTF1 / RFU, TFRC / Fold change vs veh, TFRC / RFU, ZDHHC17 / Fold change vs veh, ZDHHC17 / RFU, NOM1 / Fold change vs veh, NOM1 / RFU, ARL8B / Fold change vs veh, ARL8B / RFU, ZBTB11 / Fold change vs veh, ZBTB11 / RFU, TAMM41 / Fold change vs veh, TAMM41 / RFU, KIAA1704 /// LOC100996395 / Fold change vs veh, KIAA1704 /// LOC100996395 / RFU, ING1 / Fold change vs veh, ING1 / RFU, TRMT61B / Fold change vs veh, TRMT61B / RFU, FUBP3 / Fold change vs veh, FUBP3 / RFU, TP53 / Fold change vs veh, TP53 / RFU, TNKS2 / Fold change vs veh, TNKS2 / RFU, ZFP14 / Fold change vs veh, ZFP14 / RFU, ACTR2 / Fold change vs veh, ACTR2 / RFU, PPP3R1 / Fold change vs veh, PPP3R1 / RFU, PIK3R1 / Fold change vs veh, PIK3R1 / RFU, HNRNPA1 / Fold change vs veh, HNRNPA1 / RFU, RNF170 / Fold change vs veh, RNF170 / RFU, ZNF28 / Fold change vs veh, ZNF28 / RFU, RNGTT / Fold change vs veh, RNGTT / RFU, OGT / Fold change vs veh, OGT / RFU, BRD1 / Fold change vs veh, BRD1 / RFU, MARS / Fold change vs veh, MARS / RFU, ZNF655 / Fold change vs veh, ZNF655 / RFU, FAHD1 / Fold change vs veh, FAHD1 / RFU, BDP1 / Fold change vs veh, BDP1 / RFU, LRRCC1 / Fold change vs veh, LRRCC1 / RFU, ARID1A / Fold change vs veh, ARID1A / RFU, ZNF146 / Fold change vs veh, ZNF146 / RFU, ZNF330 / Fold change vs veh, ZNF330 / RFU, GPN3 / Fold change vs veh, GPN3 / RFU, C9orf123 / Fold change vs veh, C9orf123 / RFU, N4BP2L2 / Fold change vs veh, N4BP2L2 / RFU, ARFIP1 / Fold change vs veh, ARFIP1 / RFU, FAM179B / Fold change vs veh, FAM179B / RFU, BCL10 / Fold change vs veh, BCL10 / RFU, UHRF1BP1L / Fold change vs veh, UHRF1BP1L / RFU, BET1 / Fold change vs veh, BET1 / RFU, CNOT2 / Fold change vs veh, CNOT2 / RFU, ZNF268 / Fold change vs veh, ZNF268 / Fold change vs veh, ZNF507 / RFU, DGCR2 / Fold change vs veh, DGCR2 / RFU, WDSUB1 / Fold change vs veh, WDSUB1 / Fold change vs veh, HSP90B1 /// MIR3652 / RFU, ADSS / Fold change vs veh, ADSS / RFU, GK / Fold change vs veh, GK / RFU, ZNF148 / Fold change vs veh, ZNF148 / RFU, TAF9 / Fold change vs veh, TAF9 / RFU, SLC1A5 / Fold change vs veh, SLC1A5 / RFU, SLMO2 / Fold change vs veh, SLMO2 / RFU, ABCC4 / Fold change vs veh, ABCC4 / RFU, LOC101060439 /// RAP1B / Fold change vs veh, LOC101060439 /// RAP1B / RFU, RFX7 / Fold change vs veh, RFX7 / RFU, GTPBP10 / Fold change vs veh, GTPBP10 / RFU, CNEP1R1 / Fold change vs veh, CNEP1R1 / RFU, BIVM-ERCC5 /// ERCC5 / Fold change vs veh, BIVM-ERCC5 /// ERCC5 / RFU, ILF3 / Fold change vs veh, ILF3 / RFU 11762660_at / Fold change /veh 11762660_at / RFU VCAN (11757783_s_at) / Fold change /veh VCAN (11757783_s_at) / RFU DDX43 (11728927_at) / Fold change /veh DDX43 (11728927_at) / RFU KRT8 (11758188_x_at) / Fold change /veh KRT8 (11758188_x_at) / RFU NKD1 (11759106_at) / Fold change /veh NKD1 (11759106_at) / RFU SRD5A1 (11742802_a_at) / Fold change /veh SRD5A1 (11742802_a_at) / RFU TPSAB1 /// TPSB2 (11721975_s_at) / Fold change /veh TPSAB1 /// TPSB2 (11721975_s_at) / RFU GSTM3 (11746129_a_at) / Fold change /veh GSTM3 (11746129_a_at) / RFU IL23R (11737362_x_at) / Fold change /veh IL23R (11737362_x_at) / RFU TMEM51 (11727254_a_at) / Fold change /veh TMEM51 (11727254_a_at) / RFU PIWIL2 (11732686_x_at) / Fold change /veh PIWIL2 (11732686_x_at) / RFU ORM1 (11744905_x_at) / Fold change /veh ORM1 (11744905_x_at) / RFU CCDC152 (11743942_at) / Fold change /veh CCDC152 (11743942_at) / RFU ECM1 (11717891_a_at) / Fold change /veh ECM1 (11717891_a_at) / RFU IL23R (11748794_a_at) / Fold change /veh IL23R (11748794_a_at) / RFU TNFAIP8L3 (11732012_x_at) / Fold change /veh TNFAIP8L3 (11732012_x_at) / RFU MBOAT4 (11741988_at) / Fold change /veh MBOAT4 (11741988_at) / RFU 11764193_at / Fold change /veh 11764193_at / RFU TMEM53 (11763286_at) / Fold change /veh TMEM53 (11763286_at) / RFU MAGEB2 (11727129_at) / Fold change /veh MAGEB2 (11727129_at) / RFU TMEM200A (11744735_a_at) / Fold change /veh TMEM200A (11744735_a_at) / RFU CCDC152 (11751479_a_at) / Fold change /veh CCDC152 (11751479_a_at) / RFU FAM211A (11726209_a_at) / Fold change /veh FAM211A (11726209_a_at) / RFU RGS16 (11746705_a_at) / Fold change /veh RGS16 (11746705_a_at) / RFU VCAN (11755009_s_at) / Fold change /veh VCAN (11755009_s_at) / RFU RHOB (11743442_s_at) / Fold change /veh RHOB (11743442_s_at) / RFU RGS16 (11720943_a_at) / Fold change /veh RGS16 (11720943_a_at) / RFU RGS16 (11720944_at) / Fold change /veh RGS16 (11720944_at) / RFU, VPS4B / Fold change vs veh, VPS4B / RFU, CREB1 / Fold change vs veh, CREB1 / RFU, DNAJC13 / Fold change vs veh, DNAJC13 / RFU, GNAQ / Fold change vs veh, GNAQ / RFU, CDK5R1 / Fold change vs veh, CDK5R1 / RFU, ZRANB3 / Fold change vs veh, ZRANB3 / RFU, CUL4A / Fold change vs veh, CUL4A / RFU, CCNY / Fold change vs veh, CCNY / RFU, UFL1 / Fold change vs veh, UFL1 / RFU, COG3 / Fold change vs veh, COG3 / RFU, DIAPH2 / Fold change vs veh, DIAPH2 / RFU, SKA2 / Fold change vs veh, SKA2 / RFU, AFF3 / Fold change vs veh, AFF3 / RFU, LMF1 / Fold change vs veh, LMF1 / RFU, IPO11 / Fold change vs veh, IPO11 / RFU, DFFB / Fold change vs veh, DFFB / RFU, FOXP1 / Fold change vs veh, FOXP1 / RFU, CARD8 / Fold change vs veh, CARD8 / RFU, STRN3 / Fold change vs veh, STRN3 / RFU, ADK / Fold change vs veh, ADK / RFU, RASSF2 / Fold change vs veh, RASSF2 / RFU, WIPF1 / Fold change vs veh, WIPF1 / RFU, LARP1B / Fold change vs veh, LARP1B / RFU, RASA1 / Fold change vs veh, RASA1 / RFU, RB1 / Fold change vs veh, RB1 / RFU, PPFIA1 / Fold change vs veh, PPFIA1 / RFU, MAT2A / Fold change vs veh, MAT2A / RFU, CCT5 / Fold change vs veh, CCT5 / RFU, WDR92 / Fold change vs veh, WDR92 / RFU, CUX1 / Fold change vs veh, CUX1 / RFU, TTC7A / Fold change vs veh, TTC7A / RFU, TMEM135 / Fold change vs veh, TMEM135 / RFU, DEPTOR / Fold change vs veh, DEPTOR / RFU, CPM / Fold change vs veh, CPM / RFU, DNAJB6 / Fold change vs veh, DNAJB6 / RFU, CACNA2D3 / Fold change vs veh, CACNA2D3 / RFU, DTX4 / Fold change vs veh, DTX4 / RFU, TFCP2 / Fold change vs veh, TFCP2 / RFU, GMCL1 /// GMCL1P1 / Fold change vs veh, GMCL1 /// GMCL1P1 / RFU, AEBP2 / Fold change vs veh, AEBP2 / RFU, SNHG1 /// SNORD22 /// SNORD25 /// SNORD26 /// SNORD27 /// SNORD28 /// SNORD29 /// SNORD31 / Fold change vs veh, SNHG1 /// SNORD22 /// SNORD25 /// SNORD26 /// SNORD27 /// SNORD28 /// SNORD29 /// SNORD31 / Fold change (Aza/veh), C12orf56 (ProbeSet 11735607_a_at) / Fold change (ACY-1035/veh), C12orf56 (ProbeSet 11735607_a_at) / Fold change (Aza/veh), FGFR1OP (ProbeSet 11751329_s_at) / Fold change (ACY-1035/veh), FGFR1OP (ProbeSet 11751329_s_at) / Fold change (Aza/veh), VPS36 (ProbeSet 11739960_a_at) / Fold change (ACY-1035/veh), VPS36 (ProbeSet 11739960_a_at) / RFU SYPL1 (11715823_x_at) / Fold change /veh SYPL1 (11715823_x_at) / RFU IGFBP7 (11715501_s_at) / Fold change /veh IGFBP7 (11715501_s_at) / RFU REEP3 (11722064_at) / Fold change /veh REEP3 (11722064_at) / RFU IGLL1 (11728026_x_at) / Fold change /veh IGLL1 (11728026_x_at): dose or concentration left out as unconfirmed
Details: MV-4-11 cells, 48 hours

For `Nc1ncn([C@@H]2O[C@H](CO)[C@@H](O)[C@H]2O)c(=O)n1` [azacitidine], the “Fold change /veh TNFAIP8L3 (11732012_x_at)” value was 1.33.
